Data as given in patent US20060069132A1, “Azolecarboxamide herbicides” (priority 2004, published 2006).

How the values were obtained:
rice [1] = experiment: Test B flooded paddy test; assay type: in vivo, Oryza sativa; conditions: 1000 g ai/ha, scale 0 to 100 (0 no effect, 100 complete control)
Method in brief: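 Paddy species grown to the 2-leaf stage under flooding; blackgrass sprayed postemergence at 2–18 cm (1- to 4-leaf stage). Plants kept in a greenhouse for 13 to 15 days, then visually rated against controls on 0 (no effect) to 100 (complete control).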

rice [2] = experiment: Test C flooded paddy test; assay type: in vivo, Oryza sativa
Method in brief: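 Injury scored visually against controls on a 0 (no effect) to 100 (complete control) scale, 12 to 14 days after treatment in greenhouse. Flooded paddy plants treated at 2-leaf stage; postemergence plants at 1- to 4-leaf stage, 2 to 18 cm tall.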

large crabgrass = experiment: Test B pre-/postemergence herbicide test; assay type: in vivo, Digitaria sanguinalis; conditions: for Crabgrass, Large plant response rating: postemergence
Method in brief: (§1)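 Test chemicals in a non-phytotoxic solvent mixture with surfactant were applied preemergence to seeded species and postemergence to plants 2-18 cm tall (1- to 4-leaf stage); rice and barnyardgrass were also tested in a flooded paddy at the 2-leaf stage. Visual rating versus controls after 13-15 days in greenhouse, scale 0 (no effect) to 100 (complete control).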

corn = experiment: Test B pre-/postemergence herbicide test; assay type: in vivo, Zea mays; conditions: for Corn plant response rating: postemergence
Method in brief: as §1

pigweed = experiment: Test B pre-/postemergence herbicide test; assay type: in vivo, Amaranthus retroflexus; conditions: for Pigweed plant response rating: postemergence
Method in brief: as §1

cocklebur = experiment: Test B pre-/postemergence herbicide test; assay type: in vivo, Xanthium strumarium; conditions: for Cocklebur plant response rating: postemergence, scale 0 (no effect) to 100 (complete control)
Method in brief: (§2)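 Formulation: non-phytotoxic solvent mix with surfactant. Timing: preemergence on seed and postemergence on 2–18 cm plants, applied concurrently. Readout after 13–15 d greenhouse: visual 0–100 control rating against controls.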

[3] = tested on: smallflower umbrella sedge; experiment: Test C flooded paddy test; assay type: in vivo, Cyperus difformis
blackgrass = experiment: Test B postemergence herbicide test; assay type: in vivo, Alopecurus myosuroides; conditions: postemergence, visual rating, scale 0 (no effect) to 100 (complete control)
Method in brief: (§3)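 Scale 0–100: zero equals no visible effect, 100 complete control, judged by eye relative to controls. Timing: 13 to 15 days in greenhouse post-treatment. Growth stage at spraying: two leaves (paddy) or one to four leaves, 2–18 cm (postemergence).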

Surinam grass = experiment: Test B pre-/postemergence herbicide test; assay type: in vivo, Urochloa decumbens; conditions: for Surinam Grass plant response rating: postemergence
Method in brief: as §1

lambsquarters = experiment: Test B pre-/postemergence herbicide test; assay type: in vivo, Chenopodium album; conditions: for Lambsquarters plant response rating: postemergence
Method in brief: as §1

ducksalad [4] = experiment: Test B flooded paddy test; assay type: in vivo, Heteranthera limosa; conditions: 1000 g ai/ha, scale 0 to 100 (0 no effect, 100 complete control)
Method in brief: as §3

barnyardgrass [5] = experiment: Test B flooded paddy test; assay type: in vivo, Echinochloa crus-galli; conditions: 1000 g ai/ha, scale 0 to 100 (0 no effect, 100 complete control)
Method in brief: as §3

barnyardgrass [6] = experiment: Test C flooded paddy test; assay type: in vivo, Echinochloa crus-galli
Method in brief: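 Postemergence sprays were applied to plants 2 to 18 cm tall (1- to 4-leaf stage); in the flooded paddy test, barnyardgrass was grown to the 2-leaf stage. After 12 to 14 days in a greenhouse, injury was visually rated against untreated controls on a 0–100 scale (100 = complete control).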

giant foxtail = experiment: Test B pre-/postemergence herbicide test; assay type: in vivo, Setaria faberi; conditions: for Foxtail, Giant plant response rating: postemergence
Method in brief: as §1

morningglory = experiment: Test B pre-/postemergence herbicide test; assay type: in vivo, Ipomoea coccinea; conditions: for Morningglory plant response rating: postemergence
Method in brief: as §2

wheat = experiment: Test B postemergence herbicide test; assay type: in vivo, Triticum aestivum; set-up: key to Wheat plant response rating: 0 = no effect, 100 = complete control; conditions: postemergence
Method in brief: (§4)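 Read-out: visual comparison with controls, scored 0 to 100, where 100 means complete control and 0 no effect. Formulated chemicals were applied postemergence to plants 2–18 cm tall (1- to 4-leaf), or to flooded-paddy plants at the 2-leaf stage, then held 13 to 15 days under glass.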

barnyardgrass [7] = experiment: Test B pre-/postemergence herbicide test; assay type: in vivo, Echinochloa crus-galli; conditions: for Barnyardgrass plant response rating: postemergence, scale 0 (no effect) to 100 (complete control)
Method in brief: as §2

[8] = tested on: small flower umbrella sedge; experiment: Test B flooded paddy test; assay type: in vivo, Cyperus difformis; conditions: 1000 g ai/ha, scale 0 to 100 (0 no effect, 100 complete control)
Method in brief: as §3

rice [9] = experiment: Test B pre-/postemergence herbicide test; assay type: in vivo, Oryza sativa; conditions: 0 = no effect, 100 = complete control, preemergence
Method in brief: as §1

wild oat = experiment: Test B postemergence herbicide test; assay type: in vivo, Avena fatua; conditions: postemergence
Method in brief: as §4

velvetleaf = experiment: Test B pre-/postemergence herbicide test; assay type: in vivo, Abutilon theophrasti; conditions: for Velvetleaf plant response rating: postemergence
Method in brief: as §1

ducksalad [10] = experiment: Test C flooded paddy test; assay type: in vivo, Heteranthera limosa
[11] = 125 g ai/ha, scale 0 to 100 (0 no effect, 100 complete control)
[12] = 250 g ai/ha, scale of 0 to 100, 0 is no effect, 100 is complete control
[13] = 500 g ai/ha, visual rating after 12 to 14 days, scale 0 to 100 (0 no effect, 100 complete control)
[14] = 125 g ai/ha, 0 = no effect, 100 = complete control, preemergence
[15] = 500 g ai/ha, visual rating, 0 = no effect, 100 = complete control, preemergence
[16] = 125 g ai/ha, visual rating, scale 0 (no effect) to 100 (complete control)
[17] = 500 g ai/ha, scale 0 to 100, 0 is no effect, 100 is complete control

CCNC(=O)c1cc(NC(=O)c2cc(C(C)(C)C)nn2CC)c(F)cc1F [Compound 252]
Rice plant response rating (rice [1]): 80
Rice plant response rating (rice [2]; 62 g ai/ha, scale 0 to 100): 0
Rice plant response rating (rice [2]; [11]): 45
Rice plant response rating (rice [2]; [12]): 55
Plant response rating, Rice (rice [2]; [13]): 60
Crabgrass, Large plant response rating (0 to 100 scale) (large crabgrass; [14]): 80
Plant response rating, Crabgrass, Large (large crabgrass; [15]): 100
Crabgrass, Large plant response rating (large crabgrass; [16]): 0
Crabgrass, Large plant response rating (large crabgrass; [17]): 10
Corn plant response rating (0 to 100 scale) (corn; [14]): 0
Plant response rating, Corn (corn; [15]): 60
Corn plant response rating (corn; [16]): 10
Corn plant response rating (corn; [17]): 10
Plant response rating, Pigweed (pigweed; [15]): 100
Pigweed plant response rating (pigweed; [16]): 20
Pigweed plant response rating (pigweed; [17]): 30
Cocklebur plant response rating (0 to 100 scale) (cocklebur; [14]): 0
Plant response rating, Cocklebur (cocklebur; [15]): 0
Cocklebur plant response rating (cocklebur; 125 g ai/ha, visual rating): 20
Cocklebur plant response rating (cocklebur; 500 g ai/ha, visual rating): 40
Sedge, Umbrella plant response rating ([3]; 62 g ai/ha, scale 0 to 100): 0
Sedge, Umbrella plant response rating [3, 11]: 40
Sedge, Umbrella plant response rating [3, 12]: 50
Plant response rating, Sedge, Umbrella [3, 13]: 75
Blackgrass plant response rating (blackgrass; 125 g ai/ha): 10
Blackgrass plant response rating (blackgrass; 500 g ai/ha): 20
Surinam Grass plant response rating (0 to 100 scale) (Surinam grass; [14]): 10
Plant response rating, Surinam Grass (Surinam grass; [15]): 70
Surinam Grass plant response rating (Surinam grass; [16]): 10
Surinam Grass plant response rating (Surinam grass; [17]): 20
Plant response rating, Lambsquarters (lambsquarters; [15]): 100
Lambsquarters plant response rating (lambsquarters; [16]): 30
Lambsquarters plant response rating (lambsquarters; [17]): 30
Ducksalad plant response rating (ducksalad [4]): 90
Barnyardgrass plant response rating (barnyardgrass [5]): 70
Barnyardgrass plant response rating (barnyardgrass [6]; 62 g ai/ha, scale 0 to 100 (0 no effect, 100 complete control)): 0
Barnyardgrass plant response rating (barnyardgrass [6]; [11]): 0
Barnyardgrass plant response rating (barnyardgrass [6]; [12]): 15
Plant response rating, Barnyardgrass (barnyardgrass [6]; [13]): 45
Foxtail, Giant plant response rating (0 to 100 scale) (giant foxtail; [14]): 10
Plant response rating, Foxtail, Giant (giant foxtail; [15]): 90
Foxtail, Giant plant response rating (giant foxtail; [16]): 20
Foxtail, Giant plant response rating (giant foxtail; [17]): 30
Morningglory plant response rating (0 to 100 scale) (morningglory; [14]): 0
Plant response rating, Morningglory (morningglory; [15]): 0
Morningglory plant response rating (morningglory; [16]): 20
Morningglory plant response rating (morningglory; [17]): 20
Wheat plant response rating (wheat; [16]): 20
Wheat plant response rating (wheat; [17]): 20
Barnyardgrass plant response rating (0 to 100 scale) (barnyardgrass [7]; [14]): 0
Plant response rating, Barnyardgrass (barnyardgrass [7]; [15]): 70
Barnyardgrass plant response rating (barnyardgrass [7]; 125 g ai/ha, visual rating): 0
Barnyardgrass plant response rating (barnyardgrass [7]; 500 g ai/ha, visual rating): 10
Sedge, Umbrella plant response rating [8]: 80
Rice plant response rating (0 to 100 scale) (rice [9]; 125 g ai/ha): 30
Plant response rating, Rice (rice [9]; 500 g ai/ha, visual rating): 50
Oat, Wild plant response rating (wild oat; [16]): 20
Oat, Wild plant response rating (wild oat; [17]): 20
Velvetleaf plant response rating (0 to 100 scale) (velvetleaf; [14]): 0
Plant response rating, Velvetleaf (velvetleaf; [15]): 60
Velvetleaf plant response rating (velvetleaf; [16]): 30
Velvetleaf plant response rating (velvetleaf; [17]): 30
Ducksalad plant response rating (ducksalad [10]; 62 g ai/ha, scale 0 to 100): 0
Ducksalad plant response rating (ducksalad [10]; [11]): 0
Ducksalad plant response rating (ducksalad [10]; [12]): 15
Plant response rating, Ducksalad (ducksalad [10]; [13]): 80
